The Deep4Chem optical property database

Assay: photoluminescence quantum yield (fraction); solvent given as SMILES

## CCC(C)(C)c1ccc2c(c1)C(CC)(CC)c1cc(-c3ccc4c(c3)C(CC)(CC)c3cc(C(C)(C)CC)ccc3-4)ccc1-2
In C1CCCCC1
  photoluminescence quantum yield: 0.85

## CCCCc1cc2cccc[n+]2[b-]2c(-c3cccc4[b-]3[n+]3ccccc3cc4CCCC)cccc21
In C1CCCCC1
  photoluminescence quantum yield: 0.03

## CCCn1c2cccc3c2[c+]2c4c1cccc4n(CCC)c1cccc(c12)n3CCC
In CC#N
  photoluminescence quantum yield: 0.16
In CO
  photoluminescence quantum yield: 0.2
In ClCCl
  photoluminescence quantum yield: 0.16

## c1ccc2c(c1)ccc1ccc3c(c12)-c1c(ccc2ccc4ccccc4c12)C3
In ClCCl
  photoluminescence quantum yield: 0.39

## CCCCN1C(=O)c2cc(Oc3ccc(C(C)(C)C)cc3)c3c4c(Oc5ccc(C(C)(C)C)cc5)cc5c(=O)n6c(c7cc(Oc8ccc(C(C)(C)C)cc8)c(c8c(Oc9ccc(C(C)(C)C)cc9)cc(c2c38)C1=O)c4c57)=Cc1cccc[n+]1[B-]6(F)F
In C1CCOC1
  photoluminescence quantum yield: 0.564
In Cc1ccccc1
  photoluminescence quantum yield: 0.451
In ClCCl
  photoluminescence quantum yield: 0.5

## CN(C)CCN(Cc1c2ccccc2cc2ccccc12)c1ccc([N+](=O)[O-])cn1
In C1CCCCC1
  photoluminescence quantum yield: 0.0003
In C1CCOC1
  photoluminescence quantum yield: 0.0009
In CC#N
  photoluminescence quantum yield: 0.0383
In CC(C)=O
  photoluminescence quantum yield: 0.00324
In CCO
  photoluminescence quantum yield: 0.0115
In CN(C)C=O
  photoluminescence quantum yield: 0.0398
In CO
  photoluminescence quantum yield: 0.00453
In ClC(Cl)Cl
  photoluminescence quantum yield: 0.005

## Cc1ccc(N(c2ccc(C)cc2)c2ccc3c4cccc5c(N(c6ccc(C)cc6)c6ccc(C)cc6)ccc(c6cccc2c63)c54)cc1
In ClCCl
  photoluminescence quantum yield: 0.61

## Cc1cnc(NC(=O)C2=C([O-])c3ccccc3S(=O)(=O)N2C)s1
In CC#N
  photoluminescence quantum yield: 0.00144
In CCCCO
  photoluminescence quantum yield: 0.0114
In CCCO
  photoluminescence quantum yield: 0.00864
In CCO
  photoluminescence quantum yield: 0.00427
In CO
  photoluminescence quantum yield: 0.00252

## CC1=C2C=CC(C)=[N+]2[B-](F)(F)n2cccc21
In CCCCCC
  photoluminescence quantum yield: 0.96
In CO
  photoluminescence quantum yield: 1
In ClCCl
  photoluminescence quantum yield: 0.89

## F[B-]1(F)OC(c2ccc(N3CCCC3)cc2)=Cc2cccc[n+]21
In ClC(Cl)Cl
  photoluminescence quantum yield: 0.542

## O=C1c2ccc3c4ccc5c6c(ccc(c7ccc(c2c37)C(=O)N1c1ccncc1)c64)C(=O)N(c1ccncc1)C5=O
In C1CCOC1
  photoluminescence quantum yield: 0.508
In C1COCCO1
  photoluminescence quantum yield: 0.847
In CC(C)=O
  photoluminescence quantum yield: 0.758
In CC(C)O
  photoluminescence quantum yield: 0.454
In CCCCO
  photoluminescence quantum yield: 0.46
In CCO
  photoluminescence quantum yield: 0.201
In CCOC(C)=O
  photoluminescence quantum yield: 0.337
In CN(C)C=O
  photoluminescence quantum yield: 0.438
In CO
  photoluminescence quantum yield: 0.206
In CS(C)=O
  photoluminescence quantum yield: 0.057
In ClC(Cl)(Cl)Cl
  photoluminescence quantum yield: 0.97
In ClC(Cl)Cl
  photoluminescence quantum yield: 0.97

## c1ccc2c(c1)sc1c3ccccc3c3ncncc3c21
In ClCCl
  photoluminescence quantum yield: 0.08

## O=c1c2ccccc2nc2n1[B-](F)(F)[n+]1ccccc1-2
In CC#N
  photoluminescence quantum yield: 0.78
In ClCCl
  photoluminescence quantum yield: 0.99

## Nc1nc(/C=C/c2ccc(N(c3ccccc3)c3ccccc3)cc2)cc(/C=C/c2ccc(N(c3ccccc3)c3ccccc3)cc2)n1
In Cc1ccccc1
  photoluminescence quantum yield: 0.88
In ClC(Cl)Cl
  photoluminescence quantum yield: 0.73

## C[Si]1(C)O[Si](C)(C)c2cc3c(-c4ccccc4)c4cc(Cl)ccc4nc3cc21
In ClCCl
  photoluminescence quantum yield: 0.34

## C(=C\c1nc2ccccc2s1)/c1ccc(-c2nc3c4cccnc4c4ncccc4c3[nH]2)cc1
In C1CCOC1
  photoluminescence quantum yield: 0.33
In CC#N
  photoluminescence quantum yield: 0.17
In CO
  photoluminescence quantum yield: 0.11
In ClCCl
  photoluminescence quantum yield: 0.25

## CC1=C(c2ccc(N(c3ccccc3)c3ccccc3)cc2)C(C)=[N+]2C1=C(c1c(-c3ccccn3)nc3ccccn13)c1c(C)cc(C)n1[B-]2(F)F
In ClCCl
  photoluminescence quantum yield: 0.0038

## Cc1cc(C)c2c(c1)c1cc(C)cc(C)c1n2-c1ccc2c(c1)B(c1c(C(C)C)cc(C(C)C)cc1C(C)C)c1cc(-n3c4c(C)cc(C)cc4c4cc(C)cc(C)c43)ccc1N2c1ccccc1
In c1cc(-c2cccc(-n3c4ccccc4c4ccccc43)c2)cc(-n2c3ccccc3c3ccccc32)c1
  photoluminescence quantum yield: 0.56

## COc1cc(OC)cc(C2=C3C(C)=C(I)C(/C=C/c4ccsc4)=[N+]3[B-](F)(F)n3c(/C=C/c4ccsc4)c(I)c(C)c32)c1
In C1CCOC1
  photoluminescence quantum yield: 0.01
In CS(C)=O
  photoluminescence quantum yield: 0.01
In ClCCl
  photoluminescence quantum yield: 0.02

## CC1(C)c2cc(C#N)ccc2-c2ccc(N3c4ccccc4Oc4ccccc43)cc21
In C1CCCCC1
  photoluminescence quantum yield: 0.044
In C1CCOC1
  photoluminescence quantum yield: 0.08
In CC#N
  photoluminescence quantum yield: 0.001
In Cc1ccccc1
  photoluminescence quantum yield: 0.089
In ClC(Cl)Cl
  photoluminescence quantum yield: 0.11

## CC1(C)c2ccccc2N(c2ccc(C(=CC#N)c3ccc(N4c5ccccc5C(C)(C)c5ccccc54)cc3)cc2)c2ccccc21
In Cc1ccccc1
  photoluminescence quantum yield: 0.313

## c1cc2c3c(c1)OCCCCCCOc1cccc(c1-c1c4ccccc4c-3c3ccccc13)OCCCCCCO2
In C1CCCCC1
  photoluminescence quantum yield: 0.93

## CCN(CC)c1ccc2cc(-c3cn4cc5ccccc5cc4n3)c(=O)oc2c1
In ClC(Cl)Cl
  photoluminescence quantum yield: 0.92

## CCC12C(=C3C(=C4c5ccc(-c6ccc(C(C)=O)cc6)cc5S(=O)(=O)C41CC)C(F)(F)C(F)(F)C3(F)F)c1ccc(-c3ccc(C(C)=O)cc3)cc1S2(=O)=O (stereo not given)
In C1COCCO1
  photoluminescence quantum yield: 0.87

## c1ccc2c3c(ccc2c1)-c1cc2ccccc2c2cccc-3c12
In CCCCCCC
  photoluminescence quantum yield: 0.1

## COC(=O)C12N=N[C@](C(=O)OC)(C3C4CCC(C4)C31)[C@@]1(C)C[C@@H]21 (stereo not given in full)
In CC#N
  photoluminescence quantum yield: 0.043

## Oc1cc(-c2cccs2)ccc1-c1nc2ccccc2s1
In CCO
  photoluminescence quantum yield: 0.1
In ClCCl
  photoluminescence quantum yield: 0.0937
In O
  photoluminescence quantum yield: 0.01

## CCCC1(CCC)c2cc(-c3ccc(OC)cc3)ccc2-c2ccc(-c3ccc4c(c3)C(CCC)(CCC)c3cc(-c5ccc(OC)cc5)ccc3-4)cc21
In C1CCCCC1
  photoluminescence quantum yield: 1

## CC[C@H](C)COc1ccc(C2=C3C(C)=C(I)C(C)=[N+]3[B-](F)(F)n3c(C)c(I)c(C)c32)cc1
In ClCCl
  photoluminescence quantum yield: 0.06

## CC1=CC(c2ccc(N(C)C)cc2)=[N+]2C1=Nc1c(C)cc(-c3ccc(N(C)C)cc3)n1[B-]2(F)F
In C1CCOC1
  photoluminescence quantum yield: 0.13
In CS(C)=O
  photoluminescence quantum yield: 0.01
In Cc1ccccc1
  photoluminescence quantum yield: 0.21

## O=c1ccc2cc3c(cc2o1)OCC3
In CC(C)O
  photoluminescence quantum yield: 0.23
In CCO
  photoluminescence quantum yield: 0.23
In CCOCC
  photoluminescence quantum yield: 0.06
In CO
  photoluminescence quantum yield: 0.3
In O
  photoluminescence quantum yield: 0.83

## CC1(C)[C@@H]2[C@@H]1[C@]1(c3ccccc3)N=NC2(c2ccccc2)C2C3C=CC(C3)C21 (stereo not given in full)
In CC#N
  photoluminescence quantum yield: 0.08

## Cc1c(COC(=O)Cc2ccccc2)n2c(OCC(=O)Cc3ccccc3)c(C)c(=O)n2c1=O
In CCO
  photoluminescence quantum yield: 0.836

## COc1cc(/C=C2/SC(=O)NC2=O)cc(OC)c1O
In C1CCCCC1
  photoluminescence quantum yield: 0.032
In C1COCCO1
  photoluminescence quantum yield: 0.03
In CC#N
  photoluminescence quantum yield: 0.02
In CN(C)C=O
  photoluminescence quantum yield: 0.042
In CO
  photoluminescence quantum yield: 0.034
In O
  photoluminescence quantum yield: 0.027
In OCC(O)CO
  photoluminescence quantum yield: 0.38
In OCCO
  photoluminescence quantum yield: 0.108

## CC1=[N+]2C(=Cc3cccn3[B-]2(F)F)C=C1
In CCCCCC
  photoluminescence quantum yield: 0.96
In CO
  photoluminescence quantum yield: 1
In ClCCl
  photoluminescence quantum yield: 0.92

## COc1ccc(-c2csc(/C(C#N)=C/c3ccc(C#N)cc3)n2)cc1
In CC#N
  photoluminescence quantum yield: 0.008
In CCO
  photoluminescence quantum yield: 0.008
In CN(C)C=O
  photoluminescence quantum yield: 0.002
In Cc1ccccc1
  photoluminescence quantum yield: 0.248
In ClCCl
  photoluminescence quantum yield: 0.065

## COc1ccc2c3c(c4ccc(OC)cc4c2c1)=[N+]1C(=C(c2c(C)cc(C)cc2C)c2cc4c5ccc(OC)cc5c5cc(OC)ccc5c4n2[B-]1(F)F)C=3
In C1CCCCC1
  photoluminescence quantum yield: 0.63
In C1CCOC1
  photoluminescence quantum yield: 0.5
In CC#N
  photoluminescence quantum yield: 0.33
In Cc1ccccc1
  photoluminescence quantum yield: 0.54
In ClCCl
  photoluminescence quantum yield: 0.53

## C(/C=C/c1cc2c3c(c1)CCCN3CCC2)=C\c1ccncc1
In C1COCCO1
  photoluminescence quantum yield: 0.031
In CC#N
  photoluminescence quantum yield: 0.034
In CCCCCCC
  photoluminescence quantum yield: 0.033
In CO
  photoluminescence quantum yield: 0.016

## c1cc2c3c(cccc3c1)C(N1CCOCCOCCOCCOCC1)=N2
In CC#N
  photoluminescence quantum yield: 0.004

## FC(F)(F)c1ccc(C2=CC3=c4cc(-c5ccc(C(F)(F)F)cc5)c5nc(C(F)(F)C(F)(F)C(F)(F)F)nc6c(-c7ccc(C(F)(F)F)cc7)cc(c4c65)C4=CC(c5ccc(C(F)(F)F)cc5)=C5N=C(C(F)(F)C(F)(F)C(F)(F)F)N=C2C5C43)cc1 (stereo not given)
In C1CCOC1
  photoluminescence quantum yield: 0.96

## CCCCCCC1(CCCCCC)c2cc(-c3ccc(-c4ccc(-c5ccc(-c6ccc7c(c6)C(CCCCCC)(CCCCCC)c6cc(-n8c9ccc(-n%10c%11ccccc%11c%11ccccc%11%10)cc9c9cc(-n%10c%11ccccc%11c%11ccccc%11%10)ccc98)ccc6-7)s5)c5nsnc45)s3)ccc2-c2ccc(-n3c4ccc(-n5c6ccccc6c6ccccc65)cc4c4cc(-n5c6ccccc6c6ccccc65)ccc43)cc21
In ClCCl
  photoluminescence quantum yield: 0.15

## N#Cc1nc2c(nc1C#N)C1c3ccc(N(c4ccccc4)c4ccccc4)cc3C2c2ccc(N(c3ccccc3)c3ccccc3)cc21
In C1CCCCC1
  photoluminescence quantum yield: 0.55
In CC#N
  photoluminescence quantum yield: 0.001
In Cc1ccccc1
  photoluminescence quantum yield: 0.25
In ClCCl
  photoluminescence quantum yield: 0.002

## N#Cc1c2oc3ccccc3oc2c(C#N)c2oc3ccccc3oc12
In ClC(Cl)Cl
  photoluminescence quantum yield: 0.78

## CCOC(=O)c1sc2nc(-c3ccc(OC)cc3)c(C)c(C#N)c2c1N
In c1ccccc1
  photoluminescence quantum yield: 0.064

## Brc1ccc(-c2nc(-c3ccc(-c4nc(-c5ccc(Br)cc5)c(-c5ccc(Br)cc5)[nH]4)cc3)[nH]c2-c2ccc(Br)cc2)cc1
In CS(C)=O
  photoluminescence quantum yield: 0.49

## CC[N+]1(CC)CN2C(=N1)C(C(=O)[O-])=Cc1ccccc12
In CN(C)C=O
  photoluminescence quantum yield: 0.05
In O
  photoluminescence quantum yield: 0.736

## CC(=O)OC[C@@H]1O[C@H](N2C=CC3=Nc4nc(C)[n+](C)cc4CN3C2=O)[C@@H](O)[C@H]1O
In CC#N
  photoluminescence quantum yield: 0.89
In CCO
  photoluminescence quantum yield: 0.05
In O
  photoluminescence quantum yield: 0.2

## ClP1(Cl)=N[P@@](Cl)(Oc2ccc3ccc4cccc5ccc2c3c45)=N[P@@](Cl)(Oc2ccc3ccc4cccc5ccc2c3c45)=N1
In ClCCl
  photoluminescence quantum yield: 0.7

## COc1ccc(C2=C(c3ccc(OC)cc3)C(C)(C)c3cc(OC)ccc32)cc1
In C1CCCCC1
  photoluminescence quantum yield: 0.12

## CC(C)(C)Nc1cc2oc3cc(NC(C)(C)C)c(F)cc3c(=O)c2cc1F
In CCO
  photoluminescence quantum yield: 0.31

## Cc1cccc(C)c1Nc1ccc(/C=C/c2ccccc2)cc1
In CC#N
  photoluminescence quantum yield: 0.04
In CCCCCC
  photoluminescence quantum yield: 0.11
